pIC50: −log10 of the molar value. Like-named read-outs stand apart in the source and are kept apart here.
What was measured:
[1] = tested on: rat mammary tumor cell line 13762F; experiment: Plating efficiency assay, 13762F cells; type: cell-based; conditions: 144 h, read-out: IC50 (50% inhibition of colony formation), 6 days of continuous exposure, approximate
in vivo = conditions: female, C3Hf/Kam, mouse, iv
[2] = Acute toxicity in 13762F tumor-bearing Fischer rats
[3] = tested on: SKOV3ipl human ovarian cancer cell line; experiment: Human ovarian cancer i.p. in nude mice
[4] = 47 mg eq./kg + 14 Gy 24 h after PG-TXL
[5] = 80 mg eq./kg + 14 Gy 24 h after PG-TXL
[6] = 120 mg eq/kg + 14 Gy 24 h after PG-TXL
[7] = 120 mg eq/kg + 14 Gy 24 h prior to PG-TXL

In the case of CC(=O)O[C@H]1C(=O)[C@@]2(C)[C@H]([C@H](OC(=O)c3ccccc3)[C@]3(O)C[C@H](OC(=O)[C@H](O)[C@@H](NC(=O)c4ccccc4)c4ccccc4)C(C)=C1C3(C)C)[C@]1(OC(C)=O)CO[C@@H]1C[C@@H]2O [Paclitaxel, paclitaxel], the pIC50 [1] was ~8.70, the MTD at 2 wk (in vivo) was 80 mg/kg and the “# of Toxic Death” value ([2]; 20 mg/kg single i.v.) was 0/5. The “Body Weight Loss in %” value ([2]; 20 mg/kg single i.v.) was 17.0%, the “Time at Nadir” value ([2]; 20 mg/kg single i.v.) was 5 days and the “# of Toxic Death” value ([2]; 40 mg/kg single i.v.) was 0/3. The “Body Weight Loss in %” value ([2]; 40 mg/kg single i.v.) was 17.9%, the “Time at Nadir” value ([2]; 40 mg/kg single i.v.) was 6 days and the “Time of Full Recovery” value ([2]; 40 mg/kg single i.v.) was 16 days. The “# of Toxic Death” value ([2]; 60 mg/kg single i.v.) was 1/4, the “Body Weight Loss in %” value ([2]; 60 mg/kg single i.v.) was 16.7% and the “Time at Nadir” value ([2]; 60 mg/kg single i.v.) was 6 days. The “Time of Full Recovery” value ([2]; 60 mg/kg single i.v.) was 15 days and the MTD at 2 wk ([2]; female, Fischer 344, rat, in vivo) was < 20 mg/kg.
With Poly-Glutamic Acid-Paclitaxel [PG-TXL] the “Absolute growth delay” value (ovarian OCa-l carcinoma; [4]) was 18.2 days, the “Days for tumor to grow from 8-14 mm (means ± SD)” value (from here on “Days for tumor … (means ± SD)”) (ovarian OCa-l carcinoma; [4]) was 35.3 ± 4.7 days and the “Normalized growth delay (means ± SD)” value (ovarian OCa-l carcinoma; [4]) was 15.5 ± 4.7 days. For the same compound, the “Absolute growth delay” value (ovarian OCa-l carcinoma; 47 mg eq./kg, no radiation) was 2.7 days, the “Days for tumor … (means ± SD)” value (ovarian OCa-l carcinoma; 47 mg eq./kg, no radiation) was 19.8 ± 0.98 days and the “Absolute growth delay” value (ovarian OCa-l carcinoma; [5]) was 45.6 days. For the same compound, the “Days for tumor … (means ± SD)” value (ovarian OCa-l carcinoma; [5]) was 62 ± 4.6 days, the “Normalized growth delay (means ± SD)” value (ovarian OCa-l carcinoma; [5]) was 37.5 ± 4.6 days and the “Absolute growth delay” value (ovarian OCa-l carcinoma; 80 mg eq./kg, no radiation) was 8.1 days. For the same compound, the “Days for tumor … (means ± SD)” value (ovarian OCa-l carcinoma; 80 mg eq./kg, no radiation) was 25.3 ± 3.9 days, the “Absolute growth delay” value (ovarian OCa-l carcinoma; [6]) was 98.4 days and the “Normalized growth delay (means ± SD)” value (ovarian OCa-l carcinoma; [6]) was 85.9 ± 3.0 days. For the same compound, the “Days for tumor … (means ± SD)” value (ovarian OCa-l carcinoma; 120 mg eq/kg + 14 Gy 24 h after PG-TXL, regrown tumors only) was 115 ± 3 days, the “Absolute growth delay” value (ovarian OCa-l carcinoma; [7]) was 100.5 days and the “Normalized growth delay (means ± SD)” value (ovarian OCa-l carcinoma; [7]) was 88 ± 1.2 days. The “Days for tumor … (means ± SD)” value (ovarian OCa-l carcinoma; 120 mg eq/kg + 14 Gy 24 h prior to PG-TXL, regrown tumors only) was 117 ± 1.2 days, the “Absolute growth delay” value (ovarian OCa-l carcinoma; 120 mg eq/kg, no radiation) was 12.5 days and the “Days for tumor … (means ± SD)” value (ovarian OCa-l carcinoma; 120 mg eq/kg, no radiation) was 29.7 ± 3.2 days. The “Ascites (incidence/mice with tumor)” value ([3]; 120 mg/kg, three injections) was 3/7, the “Mean vol of ascites (s.d.)” value ([3]; 120 mg/kg, three injections) was 2.7 ± 1.4 mL and the “Tumor take (incidence of tumor/mice injected)” value ([3]; 120 mg/kg, three injections) was 7/8. The “mice killed by a single injection” value ([3]; 160 mg/kg i.v., nude mice) was 5 of the 10, the “Ascites (incidence/mice with tumor)” value ([3]; 160 mg/kg, single dose) was 0/3 and the “Body Weight Loss in %” value ([2]; 40 mg/kg single i.v.) was 11.1%. For the same compound, the “Time at Nadir” value ([2]; 40 mg/kg single i.v.) was 6 days, the “Time of Full Recovery” value ([2]; 40 mg/kg single i.v.) was 11 days and the “Body Weight Loss in %” value ([2]; 60 mg/kg single i.v.) was 15.7%. The “Time at Nadir” value ([2]; 60 mg/kg single i.v.) was 7 days and the “Time of Full Recovery” value ([2]; 60 mg/kg single i.v.) was 14 days.

— patent US6730699B2, “Water soluble paclitaxel derivatives” (priority 2001, dated 2004)
